Key:
[1] = test system: Escherichia coli ATCC 25922; assay: Minimum inhibitory concentration (MIC), CLSI broth micro-dilution, E. coli; assay type: cell-based; details: Escherichia coli, ATCC25922, 22 h, Table 6, cation adjusted Mueller Hinton Broth + 0.002% Tween-80, 35° C.
Summary of the method: (§1)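 Colonies grown 20 h at 35° C on Trypticase Soy agar (MRSA) or Luria agar (E. coli) were suspended in cation-adjusted Mueller Hinton broth with 0.002% Tween-80. Suspensions were added at OD600 0.0005 to 10-point twofold compound dilutions, then incubated 22 h at 35° C.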

[2] = test system: Methicillin Resistant Staphylococcus aureus strain USA 200; assay: Minimum inhibitory concentration (MIC), CLSI broth micro-dilution, S. aureus; assay type: cell-based; details: Staphylococcus aureus, MRSA / USA200; Table 6; MRSA USA 200; cation adjusted Mueller Hinton Broth + 0.002% Tween-80; 35° C., 22 hours
Summary of the method: as §1

| SMILES | MIC [1] [µM] | MIC [2] [µM] |
| --- | --- | --- |
| Cc1cc(-c2ccc3c(c2)CCC3(C)C)nc(C)c1C(=O)N[C@@H](CCN)C(=O)N(C)[C@@H]1C(=O)N[C@@H](C)C(=O)N[C@H](C(=O)NCC#N)Cc2ccc(OCCN)c(c2)-c2cc1ccc2OCCN (racemic) [Compound 361, rac-(8S,11S,14S)-3,18-bis(2-aminoethoxy)-N-(cyanomethyl)-11-methyl-14-[methyl-[rac-(2S)-4-amino-2-[[6-(1,1-dimethylindan-5-yl)-2,4-dimethyl-pyridine-3-carbonyl]amino]butanoyl]amino]-10,13-dioxo-9,12-diazatricyclo[13.3.1.12,6]icosa-1(18),2(20),3,5,15(19),16-hexaene-8-carboxamide] | 0.13 | 0.016 |
| CCCCCOc1ccc(-c2cc(C)c(C(=O)N[C@@H](CCN)C(=O)N(C)[C@@H]3C(=O)N[C@@H](C)C(=O)N[C@H](C(=O)NCC#N)Cc4ccc(OCCN)c(c4)-c4cc3ccc4OCCN)c(C)n2)cc1 (racemic) [Compound 362, rac-(8S,11S,14S)-3,18-bis(2-aminoethoxy)-N-(cyanomethyl)-11-methyl-14-[methyl-[rac-(2S)-4-amino-2-[[2,4-dimethyl-6-(4-pentoxyphenyl)pyridine-3-carbonyl]amino]butanoyl]amino]-10,13-dioxo-9,12-diazatricyclo[13.3.1.12,6]icosa-1(18),2(20),3,5,15(19),16-hexaene-8-carboxamide] | 0.25 | 0.063 |
| Cc1cc(-c2ccc(C(C)(C)C)cc2F)nc(C)c1C(=O)N[C@@H](CCN)C(=O)N(C)[C@@H]1C(=O)N[C@@H](C)C(=O)N[C@H](C(=O)NCC#N)Cc2ccc(OCCN)c(c2)-c2cc1ccc2OCCN (racemic) [Compound 363, rac-(8S,11S,14S)-3,18-bis(2-aminoethoxy)-N-(cyanomethyl)-11-methyl-14-[methyl-[rac-(2S)-4-amino-2-[[6-(4-tert-butyl-2-fluoro-phenyl)-2,4-dimethyl-pyridine-3-carbonyl]amino]butanoyl]amino]-10,13-dioxo-9,12-diazatricyclo[13.3.1.12,6]icosa-1(18),2(20),3,5,15(19),16-hexaene-8-carboxamide] | 0.19 | 0.016 |

Next, values leading:

| MIC [1] [µM] | MIC [2] [µM] | SMILES |
| --- | --- | --- |
| 0.064 | 0.008 | Cc1cc(-c2ccc(OCC(C)(C)C)cc2)nc(C)c1C(=O)N[C@@H](CCN)C(=O)N(C)[C@@H]1C(=O)N[C@@H](C)C(=O)N[C@H](C(=O)NCC#N)Cc2ccc(OCCN)c(c2)-c2cc1ccc2OCCN (racemic) [Compound 359, rac-(8S,11S,14S)-3,18-bis(2-aminoethoxy)-N-(cyanomethyl)-11-methyl-14-[methyl-[rac-(2S)-4-amino-2-[[6-[4-(2,2-dimethylpropoxy)phenyl]-2,4-dimethyl-pyridine-3-carbonyl]amino]butanoyl]amino]-10,13-dioxo-9,12-diazatricyclo[13.3.1.12,6]icosa-1(18),2(20),3,5,15(19),16-hexaene-8-carboxamide] |
| 0.26 | 0.066 | Cc1cc(-c2ccc(OC(C)C)cc2)nc(C)c1C(=O)N[C@@H](CCN)C(=O)N(C)[C@@H]1C(=O)N[C@@H](C)C(=O)N[C@H](C(=O)NCC#N)Cc2ccc(OCCN)c(c2)-c2cc1ccc2OCCN (racemic) [Compound 360, rac-(8S,11S,14S)-3,18-bis(2-aminoethoxy)-N-(cyanomethyl)-11-methyl-14-[methyl-[rac-(2S)-4-amino-2-[[6-(4-isopropoxyphenyl)-2,4-dimethyl-pyridine-3-carbonyl]amino]butanoyl]amino]-10,13-dioxo-9,12-diazatricyclo[13.3.1.12,6]icosa-1(18),2(20),3,5,15(19),16-hexaene-8-carboxamide] |

Reference: patent publication US20260274892A1, “MACROCYCLIC BROAD SPECTRUM ANTIBIOTICS” (RQx Pharmaceuticals, Inc., priority 2017, published 2026)
